Data: PMC3907678 (Tumour Biology, 2013)

Target: PDE1 (calmodulin-dependent 3,5-cyclic-nucleotide phosphodiesterase)
Experiment: CaM-dependent PDE1 cAMP hydrolysis assay, Lineweaver-Burk and Dixon plots
Assay type: biochemical

## C[C@@H]1CC[C@H]2[C@@H](C)C(=O)O[C@@H]3O[C@@]4(C)CC[C@@H]1[C@]32OO4 [artemisinin]
  Ki: 10 µM
